Literature values, collected in patent publication US7160886B2, “Acylated piperazine derivatives as melanocortin-4 receptor agonists” (Merck & Co., Inc., priority 2003, dated 2007).

Tested on: men with erectile dysfunction
Settings: for duration of effect / onset of action: after an oral dose; for patients in whom effective / adequate response: oral

| SMILES | duration of effect | onset of action [min] | patients in whom effective / adequate response |
| --- | --- | --- | --- |
| Cc1ccc(N(CC2=NCCN2)c2cccc(O)c2)cc1 [phentolamine] | 2 h | 5 to 30 | 35–40% |
| CCCc1nn(C)c2c(=O)[nH]c(-c3cc(S(=O)(=O)N4CCN(C)CC4)ccc3OCC)nc12 [sildenafil] | about 4 hours | 30 to 60 | about 70% |
